Bounds are passed on as bounds.

The target in test [1] is Death-associated protein kinase 3 (Homo sapiens, UniProt O43293). Briefly: Inhibition of recombinant human ZIPK (1 to 290 residues) using KKLNRTLSFAEPG substrate incubated for 40 mins in presence of [gamma33P]ATP by scintillation counting based radiometry assay.
Test [2] has as its target G protein-coupled receptor kinase 6 (Homo sapiens, UniProt P43250). Kind of test: Inhibition of recombinant full-length human GRK6 using casein as substrate measured after 80 mins in presence of [gamma33P]ATP by radiometric scintillation counting method.
Test [3] addresses T1, Beta-adrenergic receptor kinase 1 (Homo sapiens, UniProt P25098).
T1 sequence (P25098 whole entry): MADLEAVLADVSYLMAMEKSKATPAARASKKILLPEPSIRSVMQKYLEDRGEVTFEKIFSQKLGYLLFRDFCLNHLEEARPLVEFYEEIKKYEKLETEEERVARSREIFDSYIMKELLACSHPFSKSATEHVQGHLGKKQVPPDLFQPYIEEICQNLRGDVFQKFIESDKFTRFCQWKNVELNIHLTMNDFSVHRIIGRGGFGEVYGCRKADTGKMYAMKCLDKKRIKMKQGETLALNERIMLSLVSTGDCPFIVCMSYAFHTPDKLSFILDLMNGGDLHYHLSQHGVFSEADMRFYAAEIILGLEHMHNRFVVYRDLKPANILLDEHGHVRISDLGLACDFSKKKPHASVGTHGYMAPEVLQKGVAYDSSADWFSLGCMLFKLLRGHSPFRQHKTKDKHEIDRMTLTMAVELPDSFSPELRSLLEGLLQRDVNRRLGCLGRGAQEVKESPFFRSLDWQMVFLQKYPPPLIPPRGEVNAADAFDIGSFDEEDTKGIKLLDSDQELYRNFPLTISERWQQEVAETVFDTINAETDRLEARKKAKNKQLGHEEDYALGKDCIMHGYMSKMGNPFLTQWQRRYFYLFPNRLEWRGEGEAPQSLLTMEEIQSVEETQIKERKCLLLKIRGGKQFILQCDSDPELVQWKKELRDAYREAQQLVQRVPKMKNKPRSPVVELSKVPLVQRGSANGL
Briefly: Inhibition of human GRK2 using casein as substrate in presence of [gamma33P]ATP by radiometric hotspot kinase assay.

Chain of Death-associated protein kinase 3 (O43293 whole entry, the tested form may be a part): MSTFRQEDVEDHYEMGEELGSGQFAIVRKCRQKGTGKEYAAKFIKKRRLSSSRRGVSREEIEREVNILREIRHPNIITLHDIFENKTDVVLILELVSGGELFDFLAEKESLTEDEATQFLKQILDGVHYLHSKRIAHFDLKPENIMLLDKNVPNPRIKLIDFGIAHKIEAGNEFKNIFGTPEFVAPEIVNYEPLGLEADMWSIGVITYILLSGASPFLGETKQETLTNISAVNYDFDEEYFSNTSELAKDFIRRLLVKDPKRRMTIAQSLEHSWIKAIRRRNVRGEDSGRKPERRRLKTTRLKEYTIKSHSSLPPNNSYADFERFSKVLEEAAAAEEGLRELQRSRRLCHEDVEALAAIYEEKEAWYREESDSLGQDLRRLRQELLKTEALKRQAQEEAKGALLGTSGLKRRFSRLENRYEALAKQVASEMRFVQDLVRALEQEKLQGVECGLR
Chain of G protein-coupled receptor kinase 6 (P43250 whole entry): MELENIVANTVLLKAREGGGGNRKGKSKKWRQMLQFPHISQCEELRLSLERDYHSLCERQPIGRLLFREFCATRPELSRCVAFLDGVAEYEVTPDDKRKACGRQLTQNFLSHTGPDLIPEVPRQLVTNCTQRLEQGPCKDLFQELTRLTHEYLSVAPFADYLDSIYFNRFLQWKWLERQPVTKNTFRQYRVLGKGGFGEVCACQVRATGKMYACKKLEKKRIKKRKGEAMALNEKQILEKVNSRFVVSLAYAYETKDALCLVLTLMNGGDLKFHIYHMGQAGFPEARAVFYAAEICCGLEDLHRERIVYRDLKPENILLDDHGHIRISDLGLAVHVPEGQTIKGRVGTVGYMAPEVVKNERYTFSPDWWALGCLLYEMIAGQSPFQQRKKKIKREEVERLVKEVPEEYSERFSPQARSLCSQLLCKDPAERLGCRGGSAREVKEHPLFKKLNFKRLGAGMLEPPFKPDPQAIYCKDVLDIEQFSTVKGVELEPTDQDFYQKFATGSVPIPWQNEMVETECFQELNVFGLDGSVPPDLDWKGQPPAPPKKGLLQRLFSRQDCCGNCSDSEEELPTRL

As for `CCc1cc(Nc2nc(NCc3ccc(Cl)cc3OC)nc3cccc(OC)c23)n[nH]1`, the IC50 was 720 nM in test [1], 8 nM in test [2] and more than 10000 nM in test [3].

Source of the values: ChEMBL document CHEMBL4808217, “Design, Synthesis, and Characterization of 4-Aminoquinazolines as Potent Inhibitors of the G Protein-Coupled Receptor Kinase 6 (GRK6) for the Treatment of Multiple Myeloma” (J Med Chem, 2021).
